Patent US4576760A, “Hydroquinone sulfate derivatives and production thereof” (Takeda Chemical Industries, Ltd., priority 1983, dated 1986)

Key:
peroxidation of lipids = assay: Inhibition rate of peroxidation of lipids (method of Kornbrust and Mavis; malondialdehyde formed in homogenized rat livers with NADPH/Fe++); type: biochemical; settings: homogenized livers of rats
Procedure: In accordance with the method of Kornbrust and Mavis [Mol. Pharm., 17, 400 (1980)], inhibition rate of peroxidation of lipids was determined.
Note*: Homogenized livers of rats were incubated in the presence of
NADPH/Fe^++. The amounts of malondialdehyde formed due to the
peroxidation of lipids were compared.

cAMP phosphodiesterase = assay: Action of inhibiting cAMP phosphodiesterase (method of Butcher and Sutherland; inorganic phosphoric acid produced from cyclic AMP); type: biochemical; settings: phosphodiesterase from beef heart and 5'-nucleotidase
Procedure: In accordance with the method of Butcher and Sutherland [J. Biol. Chem., 237, 1244 (1962)], the action of inhibiting cAMP phosphodiesterase was determined.
**Amounts of inorganic phosphoric acid produced by decomposition of cycli
AMP with phosphodiesterase from beef heart and 5nucleotidase.

COc1c(O)c(C)c(CCCCCCCCCCO)c(OS(=O)(=O)O)c1OC [6-(10-hydroxydecyl)-2,3-dimethoxy-5-methylhydroquinone 1-sulfate]
Inhibition Rate of Peroxidation of Lipids (peroxidation of lipids; 1 × 10^-4 M): 59% | Inhibition Rate of Peroxidation of Lipids (peroxidation of lipids; 1 × 10^-5 M): 28% | Inhibition rate of phosphodiesterase (cAMP phosphodiesterase; 1 × 10^-3 M): 89% | Inhibition rate of phosphodiesterase (cAMP phosphodiesterase; 5 × 10^-4 M): 70%
